According to US20100292288A1, “CRYSTALLINE FORMS OF (R)-1-{2-[4`- (3-METHOXY-PROPANE-1- SULFONYL)-BIPHENYL-4-YL]-ETHYL}-2-METHYL-PYRROLIDINE, AND COMPOSITIONS, AND METHODS RELATED THERETO” (ARENA PHARMACEUTICALS, INC., priority 2007, published 2010):

What was measured:
[1] = Dynamic vapor sorption (DVS) analysis, hygroscopicity; format: physicochemical; conditions: crystalline form; VTI-SGA100
Description: Dynamic vapor sorption analysis was conducted using a VTI-SGA100. Samples were placed in an open pan inside the instrument and allowed to dry at a relative humidity (RH) of 0%. The sample was considered sufficiently dry when a change in mass over time (dm/dt) was less than 0.04%. The subsequent experiment which, started immediately after drying, was as follows: RH increased in 5% RH steps from 0-95% followed by decreasing RH steps from 95-5%. A change in dm/dt of 0.002% was used to determine when equilibration at any given step was achieved prior to the instrument moving to the next relative humidity step.
Hygroscopicity was measured using a dynamic moisture-sorption analyzer, VTI Corporation, SGA-100. The sample was placed as-is in a tared sample holder on the VTI balance. A drying step was run at 40° C. and 1% RH for 20 minutes. The isotherm conditions are 25° C. with steps of 20% RH from 10% RH up to 90% RH and back to 10% RH. Weight is checked every 5 minutes. Consecutive % weight change of <0.01% or 2 hours, whichever occurs first, is required before continuing to the next step.

histamine H3-receptor = histamine H3-receptor (Rattus norvegicus, UniProt Q9QYN8); assay: [3H] N-alpha-methyl-histamine competitive histamine H3-receptor binding assay; conditions: membranes from whole rat brain cortex; [3H]-N-α-methyl-histamine 1 nM; 30 min at room temperature
histamine H3-receptor, sequence (Q9QYN8 1-397 isoform Q9QYN8-3): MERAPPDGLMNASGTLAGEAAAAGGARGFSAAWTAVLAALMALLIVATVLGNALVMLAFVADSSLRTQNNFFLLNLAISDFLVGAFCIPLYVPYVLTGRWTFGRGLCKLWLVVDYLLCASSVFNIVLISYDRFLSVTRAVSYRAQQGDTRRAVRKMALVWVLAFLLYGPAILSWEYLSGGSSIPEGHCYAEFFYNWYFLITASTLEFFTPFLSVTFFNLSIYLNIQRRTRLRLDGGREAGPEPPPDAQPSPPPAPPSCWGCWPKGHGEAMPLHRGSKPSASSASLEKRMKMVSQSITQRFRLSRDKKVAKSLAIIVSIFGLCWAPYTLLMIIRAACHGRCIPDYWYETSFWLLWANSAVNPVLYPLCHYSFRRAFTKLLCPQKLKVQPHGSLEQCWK
Description: The histamine receptor binding assay was conducted using standard laboratory procedures as described below. A crude membrane fraction was prepared from whole rat brain cortex using a polytron to homogenize the tissue followed by differential centrifugation in a HEPES-based buffer containing protease inhibitors. Membranes where frozen at −80° C. until needed. Frozen membranes were thawed and resuspended in ice-cold assay buffer consisting of 50 mM TRIS containing 5 mM EDTA (pH=7.4). 50 micrograms (μg) of membrane protein was added to each well of a 96-well assay plate along with test compound and [^3H]-N-α-methyl-histamine (1 nanomolar (nM) final assay concentration). Imetit was used as an assay positive control at varying concentrations. The plate was incubated for 30 min at room temperature. The assay was terminated by rapid filtration through a 96-well glass fiber filtration plate (GF/C) using a cell harvester (Perkin-Elmer). Captured membranes were washed three times with cold assay buffer and plates were dried at 50° C. 35 microliters (μL) of scintillation cocktail was added to each well and membrane-bound radioactivity was recorded using a TopCount 96-well plate scintillation counter (Perkin-Elmer).

RAMH-induced drinking = assay: Blockade of RAMH-induced drinking assay; format: in vivo, rat; conditions: male Sprague Dawley rats; 0.3 mg/kg PO; RAMH 3 mg/kg SC 30 min later; water intake over 20 min
Description: When administered to rodents, H3 agonists such as R-α-methyl-histamine (RAMH) induce a drinking response which is sensitive to reversal with an H3 antagonist. Blockade of RAMH-induced drinking can therefore be utilised as an in vivo assay for functional H3 antagonist activity. In this assay, male Sprague Dawley rats (250-350 g) were housed three per cage and maintained under a reverse 12 h light cycle (lights off at 1130 h). At 1030 h on the day of test, rats were individually housed in new cages and food was removed. 120 min later, rats were administered test article (vehicle or H3 antagonist, 0.3 mg/kg PO). 30 min later, water was removed, and RAMH (vehicle or RAMH 3 mg/kg salt SC) was administered. 10 min after administration of RAMH, weighed water bottles were placed in the cages, and drinking was allowed for 20 min. Water consumption was determined for each animal by weighing each bottle to the nearest 0.1 g. Data is expressed as percentage reduction in water intake according to the following formula: [1−[(ANTAGONIST/RAMH)−(VEHICLE/RAMH)/(VEHICLE/RAMH)−(VEHICLE/VEHICLE)]]*100

[2] = target: T1, human histamine H3-receptor (Homo sapiens, UniProt Q9Y5N1); assay: Human histamine H3-receptor binding assay, MDS Pharma Services (Taiwan); conditions: Catalogue No. 239810
T1 construct: purchased MDS Pharma Services (Taiwan) 239810
T1 sequence (Q9Y5N1 whole entry): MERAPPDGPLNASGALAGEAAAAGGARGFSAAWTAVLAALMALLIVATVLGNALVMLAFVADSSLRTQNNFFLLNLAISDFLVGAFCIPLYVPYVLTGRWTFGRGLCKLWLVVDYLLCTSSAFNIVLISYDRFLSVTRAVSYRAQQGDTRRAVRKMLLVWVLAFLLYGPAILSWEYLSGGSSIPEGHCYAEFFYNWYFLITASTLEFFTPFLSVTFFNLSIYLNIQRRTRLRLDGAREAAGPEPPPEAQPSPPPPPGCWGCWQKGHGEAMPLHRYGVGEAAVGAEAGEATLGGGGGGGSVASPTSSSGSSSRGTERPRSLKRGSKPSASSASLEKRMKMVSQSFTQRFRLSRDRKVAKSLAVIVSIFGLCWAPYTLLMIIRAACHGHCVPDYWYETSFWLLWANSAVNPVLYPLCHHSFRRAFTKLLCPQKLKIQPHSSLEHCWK
Description: Compounds were tested for their ability to bind to the human histamine H3-receptor using the MDS Pharma Services (Taiwan) assay, Catalogue No. 239810.

| Compound | hygroscopicity from DVS data [1] | Ki (histamine H3-receptor) [nM] | % inhibition of RAMH-induced drinking (RAMH-induced drinking) [%] | Ki [2] [nM] |
| --- | --- | --- | --- | --- |
| COCCCS(=O)(=O)c1ccc(-c2ccc(CCN3CCC[C@H]3C)cc2)cc1.O=C(O)CC(O)(CC(=O)O)C(=O)O.O=C(O)CC(O)(CC(=O)O)C(=O)O [Cmpd (I) di-citrate, (R)-1-{2-[4′-(3-methoxy-propane-1-sulfonyl)-biphenyl-4-yl]-ethyl}-2-methyl-pyrrolidine di-citrate] | non-hygroscopic | 0.75 | 104 ± 14 |  |
| COCCCS(=O)(=O)c1ccc(-c2ccc(CCN3CCC[C@H]3C)cc2)cc1 [Cmpd (I), (R)-1-{2-[4′-(3-methoxy-propane-1-sulfonyl)-biphenyl-4-yl]-ethyl}-2-methyl-pyrrolidine] |  |  |  | 5.37 |
| COCCCS(=O)(=O)c1ccc(-c2ccc(CCN3CCC[C@H]3C)cc2)cc1.O=C(O)/C=C\C(=O)O [(R)-1-{2-[4′-(3-methoxy-propane-1-sulfonyl)-biphenyl-4-yl]-ethyl}-2-methyl-pyrrolidine maleate] | non-hygroscopic |  |  |  |
